Experimental data published in ChEMBL document CHEMBL1201862, “PubChem BioAssay data set” (2004).
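Five concentrations, 48 hours, 96-well plates. At the GI50, growth is halved.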 The source made the active and inactive calls. Rule as the data show it: active = GI50 up to about 1.1 µM and inactive = higher.

Key:
Test in all cases: NCI-60 cell line screen, 48 h
786-0 = system: 786-0
A549 = system: A549
ACHN = system: ACHN
HCT-116 = system: HCT-116
HOP-62 = system: HOP-62
HOP-92 = system: HOP-92
HT-29 = system: HT-29
KM12 = system: KM12
Malme-3M = system: Malme-3M
NCI-H460 = system: NCI-H460
RPMI-8226 = system: RPMI-8226
SF-295 = system: SF-295
SF-539 = system: SF-539
SK-MEL-28 = system: SK-MEL-28
SNB-19 = system: SNB-19
SNB-75 = system: SNB-75

CCOC(=O)c1cc(/C=C/C(C)=C/C(=O)OC)oc1C
GI50 (786-0): > 100 µM (inactive)
GI50 (A549): > 100 µM (inactive)
GI50 (ACHN): > 100 µM (inactive)
GI50 (HCT-116): > 100 µM (inactive)
GI50 (HOP-62): > 100 µM (inactive)
GI50 (HOP-92): > 100 µM (inactive)
GI50 (HT-29): > 100 µM (inactive)
GI50 (KM12): > 100 µM (inactive)
GI50 (Malme-3M): > 100 µM (inactive)
GI50 (NCI-H460): > 100 µM (inactive)
GI50 (RPMI-8226): > 100 µM (inactive)
GI50 (SF-295): > 100 µM (inactive)
GI50 (SF-539): > 100 µM (inactive)
GI50 (SK-MEL-28): > 100 µM (inactive)
GI50 (SNB-19): > 100 µM (inactive)
GI50 (SNB-75): > 100 µM (inactive)

CCC1c2cc3n(c(=O)c2COC1O)Cc1c-3nc2ccccc2c1Cl (stereo not drawn)
GI50 (786-0): 25.7 µM (inactive)
GI50 (A549): 28.5 µM (inactive)
GI50 (ACHN): 19.3 µM (inactive)
GI50 (HCT-116): 20.1 µM (inactive)
GI50 (HOP-62): 14.8 µM (inactive)
GI50 (HOP-92): > 100 µM (inactive)
GI50 (HT-29): 70.1 µM (inactive)
GI50 (KM12): > 100 µM (inactive)
GI50 (Malme-3M): > 100 µM (inactive)
GI50 (NCI-H460): 3.89 µM (inactive)
GI50 (RPMI-8226): > 29.3 µM (inactive)
GI50 (SF-295): 20.9 µM (inactive)
GI50 (SF-539): 22.2 µM (inactive)
GI50 (SK-MEL-28): > 100 µM (inactive)
GI50 (SNB-19): 30.3 µM (inactive)
GI50 (SNB-75): 20.5 µM (inactive)

Oc1cc2cc(-c3ccccc3)[nH]c2c2ccccc12
GI50 (786-0): > 59 µM (inactive)
GI50 (A549): 30.1 µM (inactive)
GI50 (ACHN): 25 µM (inactive)
GI50 (HCT-116): 17.1 µM (inactive)
GI50 (HOP-62): > 85.9 µM (inactive)
GI50 (HOP-92): 23.8 µM (inactive)
GI50 (HT-29): 68.9 µM (inactive)
GI50 (KM12): 27.4 µM (inactive)
GI50 (Malme-3M): 19.9 µM (inactive)
GI50 (NCI-H460): 24 µM (inactive)
GI50 (RPMI-8226): 16.6 µM (inactive)
GI50 (SF-295): 7.1 µM (inactive)
GI50 (SF-539): 28.6 µM (inactive)
GI50 (SK-MEL-28): 42.3 µM (inactive)
GI50 (SNB-19): 21.7 µM (inactive)
GI50 (SNB-75): 33 µM (inactive)

COc1nc(OC)c2c(=O)oc(-c3ccccc3)cc2n1
GI50 (786-0): > 100 µM (inactive)
GI50 (A549): > 100 µM (inactive)
GI50 (ACHN): > 100 µM (inactive)
GI50 (HCT-116): > 100 µM (inactive)
GI50 (HOP-92): > 100 µM (inactive)
GI50 (HT-29): > 100 µM (inactive)
GI50 (KM12): > 100 µM (inactive)
GI50 (Malme-3M): > 100 µM (inactive)
GI50 (RPMI-8226): > 100 µM (inactive)
GI50 (SF-295): > 100 µM (inactive)
GI50 (SF-539): > 100 µM (inactive)
GI50 (SK-MEL-28): > 100 µM (inactive)
GI50 (SNB-19): > 100 µM (inactive)
GI50 (SNB-75): 53.5 µM (inactive)

CCC12C=CCN3CC[C@]4(C(=C(C(=O)OC)[C@@H]1Nc1ccn(C5OC(COC(C)=O)C(OC(C)=O)C5OC(C)=O)c(=O)n1)Nc1ccccc14)C32 (stereo partly drawn)
GI50 (786-0): 4.54 µM (inactive)
GI50 (A549): 5.9 µM (inactive)
GI50 (ACHN): 4.43 µM (inactive)
GI50 (HCT-116): 4 µM (inactive)
GI50 (HOP-62): 4.93 µM (inactive)
GI50 (HOP-92): 4.31 µM (inactive)
GI50 (HT-29): 4.8 µM (inactive)
GI50 (KM12): 1.32 µM (inactive)
GI50 (Malme-3M): 4.78 µM (inactive)
GI50 (NCI-H460): 4.45 µM (inactive)
GI50 (RPMI-8226): 5.46 µM (inactive)
GI50 (SF-295): 4.72 µM (inactive)
GI50 (SF-539): 5 µM (inactive)
GI50 (SK-MEL-28): 4.55 µM (inactive)
GI50 (SNB-19): 4.73 µM (inactive)
GI50 (SNB-75): 3.95 µM (inactive)

CC(=O)NC(CCCN(Cc1ccccc1)C(=O)NCCCl)C(=O)NCc1ccccc1 (stereo not drawn)
GI50 (786-0): > 100 µM (inactive)
GI50 (A549): > 100 µM (inactive)
GI50 (ACHN): > 100 µM (inactive)
GI50 (HCT-116): > 100 µM (inactive)
GI50 (HOP-62): > 100 µM (inactive)
GI50 (HOP-92): > 79.4 µM (inactive)
GI50 (HT-29): > 100 µM (inactive)
GI50 (KM12): > 100 µM (inactive)
GI50 (Malme-3M): > 100 µM (inactive)
GI50 (NCI-H460): > 100 µM (inactive)
GI50 (RPMI-8226): > 100 µM (inactive)
GI50 (SF-295): > 100 µM (inactive)
GI50 (SF-539): > 100 µM (inactive)
GI50 (SK-MEL-28): > 100 µM (inactive)
GI50 (SNB-19): > 100 µM (inactive)
GI50 (SNB-75): > 69.5 µM (inactive)

Nc1cccc2c1C(=O)c1cccc(N)c1C2=O
GI50 (786-0): > 100 µM (inactive)
GI50 (A549): > 100 µM (inactive)
GI50 (ACHN): > 100 µM (inactive)
GI50 (HCT-116): > 100 µM (inactive)
GI50 (HOP-62): > 100 µM (inactive)
GI50 (HOP-92): > 100 µM (inactive)
GI50 (HT-29): > 100 µM (inactive)
GI50 (KM12): > 100 µM (inactive)
GI50 (Malme-3M): > 100 µM (inactive)
GI50 (NCI-H460): > 100 µM (inactive)
GI50 (RPMI-8226): > 100 µM (inactive)
GI50 (SF-539): > 100 µM (inactive)
GI50 (SK-MEL-28): > 100 µM (inactive)
GI50 (SNB-19): > 100 µM (inactive)
GI50 (SNB-75): > 100 µM (inactive)

Nc1n[n+]([O-])c2ccccc2[n+]1[O-] [TIRAPAZAMINE]
GI50 (786-0): > 100 µM (inactive)
GI50 (A549): 93.5 µM (inactive)
GI50 (ACHN): 48.6 µM (inactive)
GI50 (HOP-62): 53.1 µM (inactive)
GI50 (HOP-92): 29.7 µM (inactive)
GI50 (HT-29): > 100 µM (inactive)
GI50 (KM12): > 100 µM (inactive)
GI50 (Malme-3M): 50.4 µM (inactive)
GI50 (NCI-H460): 49.7 µM (inactive)
GI50 (RPMI-8226): 57.4 µM (inactive)
GI50 (SF-295): > 100 µM (inactive)
GI50 (SF-539): > 100 µM (inactive)
GI50 (SK-MEL-28): > 100 µM (inactive)
GI50 (SNB-19): > 100 µM (inactive)
GI50 (SNB-75): 29.6 µM (inactive)

CC1=C[C@H]2c3c([nH]c4ccccc34)C(c3c[nH]c4ccccc34)[C@H]2CC1 (stereo partly drawn)
GI50 (786-0): 3.88 µM (inactive)
GI50 (A549): 10.1 µM (inactive)
GI50 (ACHN): 10.2 µM (inactive)
GI50 (HCT-116): 3.27 µM (inactive)
GI50 (HOP-92): 0.536 µM (active)
GI50 (HT-29): 3.3 µM (inactive)
GI50 (Malme-3M): 18.5 µM (inactive)
GI50 (NCI-H460): 2.84 µM (inactive)
GI50 (RPMI-8226): 3.24 µM (inactive)
GI50 (SF-539): 12.9 µM (inactive)
GI50 (SK-MEL-28): 12.1 µM (inactive)
GI50 (SNB-75): 6.44 µM (inactive)

Cc1ccc(S(=O)(=O)N/N=C(\c2nc3ccc(Cl)cc3nc2O)C(O)c2cccc([N+](=O)[O-])c2)cc1 (stereo not drawn)
GI50 (786-0): > 100 µM (inactive)
GI50 (A549): > 100 µM (inactive)
GI50 (ACHN): > 100 µM (inactive)
GI50 (HCT-116): > 100 µM (inactive)
GI50 (HOP-62): > 100 µM (inactive)
GI50 (HOP-92): > 100 µM (inactive)
GI50 (HT-29): > 100 µM (inactive)
GI50 (KM12): > 100 µM (inactive)
GI50 (Malme-3M): > 100 µM (inactive)
GI50 (NCI-H460): > 100 µM (inactive)
GI50 (RPMI-8226): 71 µM (inactive)
GI50 (SF-295): > 100 µM (inactive)
GI50 (SF-539): > 100 µM (inactive)
GI50 (SK-MEL-28): > 100 µM (inactive)
GI50 (SNB-19): > 100 µM (inactive)
GI50 (SNB-75): > 100 µM (inactive)

CCCCCCCCCCCC(=O)c1c(O)cccc1O
GI50 (786-0): 18.1 µM (inactive)
GI50 (A549): 18 µM (inactive)
GI50 (ACHN): 19.5 µM (inactive)
GI50 (HCT-116): 18 µM (inactive)
GI50 (HOP-62): 17.6 µM (inactive)
GI50 (HOP-92): 18.1 µM (inactive)
GI50 (HT-29): 22.3 µM (inactive)
GI50 (KM12): 16 µM (inactive)
GI50 (Malme-3M): 14.6 µM (inactive)
GI50 (NCI-H460): 21.7 µM (inactive)
GI50 (RPMI-8226): 26.7 µM (inactive)
GI50 (SF-295): 17.2 µM (inactive)
GI50 (SF-539): 18 µM (inactive)
GI50 (SK-MEL-28): 17.8 µM (inactive)
GI50 (SNB-19): 16.5 µM (inactive)
GI50 (SNB-75): 16.8 µM (inactive)

Brc1cccc(C2SCc3nc4ccccc4n32)c1 (stereo not drawn)
GI50 (786-0): 17.5 µM (inactive)
GI50 (A549): 32.7 µM (inactive)
GI50 (ACHN): 16.3 µM (inactive)
GI50 (HCT-116): 14.5 µM (inactive)
GI50 (HOP-62): 15.3 µM (inactive)
GI50 (HOP-92): 11.1 µM (inactive)
GI50 (HT-29): 20.6 µM (inactive)
GI50 (KM12): 16.1 µM (inactive)
GI50 (Malme-3M): 24 µM (inactive)
GI50 (NCI-H460): 23.6 µM (inactive)
GI50 (RPMI-8226): 12.5 µM (inactive)
GI50 (SF-295): 27.1 µM (inactive)
GI50 (SF-539): 20.8 µM (inactive)
GI50 (SK-MEL-28): 17.1 µM (inactive)
GI50 (SNB-75): 0.0533 µM (active)

CCOC(=O)C1=C(Nc2cccc3ccccc23)OCC1=O
GI50 (786-0): > 100 µM (inactive)
GI50 (A549): > 100 µM (inactive)
GI50 (ACHN): > 100 µM (inactive)
GI50 (HCT-116): > 100 µM (inactive)
GI50 (HOP-62): > 100 µM (inactive)
GI50 (HOP-92): > 100 µM (inactive)
GI50 (HT-29): > 100 µM (inactive)
GI50 (KM12): > 100 µM (inactive)
GI50 (Malme-3M): > 100 µM (inactive)
GI50 (NCI-H460): > 100 µM (inactive)
GI50 (RPMI-8226): > 100 µM (inactive)
GI50 (SF-539): > 100 µM (inactive)
GI50 (SK-MEL-28): 43.5 µM (inactive)
GI50 (SNB-19): > 100 µM (inactive)
GI50 (SNB-75): > 100 µM (inactive)
